{"source": "patent US20240316202A1", "about": "“NOVEL PHOTOSENSITIZER” (The University of Tokyo, priority 2020, published 2024)", "key": {"[1]": {"assay": "Optical characteristics (UV-Vis absorption and fluorescence spectroscopy)", "format": "physicochemical", "conditions": "physiological conditions", "procedure": "UV-visible spectra were obtained with Shimadzu UV-1800. A fluorescence spectroscopic test was performed with Hitachi F7000.\nThe slit width in the fluorescence measurement was 1 nm for both excitation and light emission. The photomultiplier tube voltage was 400 V. The area under the light emission spectrum of the test sample and the spectral area of the standard sample were determined and calculated by the following equation to determine a relative fluorescence quantum yield (Φfl).\nThe optical characteristics of the probe (1 μM) were examined in a 0.1 M sodium phosphate buffer containing 0.1% DMSO as a co-solvent.\nTherefore, it is expected that HMRIef in which iodine is introduced into the xanthene ring site of HMRef is also placed in the same equilibrium. […] In addition, a fluorescence spectrum was also measured. […]\nFIG. 3(a) illustrates the chemical structure and optical characteristics of HMRIef. FIG. 3(b) illustrates the measurement results of the absorption spectrum and fluorescence spectrum of HMRIef (measurement was performed in a 0.1 M sodium phosphate buffer containing 0.1% DMSO as a co-solvent. dye concentration: 1 μM (absorption) or 10 μM (fluorescence)). FIG. 3(c) illustrates the measurement results of the absorption spectra measured in 0.1 M sodium phosphate buffers with various pH containing 0.1% DMSO as a co-solvent (dye concentration: 1 μM). […]"}, "[2]": {"assay": "Detection of singlet oxygen by near infrared spectroscopy", "format": "physicochemical", "conditions": "PBS pH 7.4, 0.1% DMSO, dye 1 μM, 508 nm excitation; mean±S.D.", "procedure": "Singlet oxygen was detected by measuring ^1O2 light emission near 1,270 nm by laser irradiation using a near infrared emission spectrometer (Fluorolog-3, Horiba, Japan). A dye was dissolved in phosphate buffered saline (PBS) containing 0.1% DMSO as a co-solvent and irradiation was performed with light at a wavelength of 508 nm. In order to calculate a ^1O2 quantum yield, the light emission signal was integrated for each wavelength for 7 seconds. A singlet oxygen generation quantum yield was calculated using Rose bengal (0.75) (DeRosa, M. C. & Crutchley, R. J. Photosensitized singlet oxygen and its applications. Coordination Chemistry Reviews 233-234, 351-371, doi:10.1016/S0010-8545(02)00034-6 (2002)) in PBS as a reference.\nWhether HMRIef had photosensitizing ability was examined. In the examination, the singlet oxygen generation ability was evaluated by the light emission intensity at […] under light irradiation conditions using the property that singlet oxygen (^1O2) generated by energy transfer from the photoexcited probe to oxygen molecules emits near-infrared light having a peak top near 1,270 nm.\nThe right view of FIG. 6 illustrates the light emission spectrum of ^1O2 by 508 nm laser excitation. The dashed line was taken as the background. The spectra were measured in PBS with pH 7.4 containing 0.1% DMSO as a co-solvent (dye concentration: 1 μM). […]"}, "[3]": {"conditions": "in PBS, used as reference; cited from earlier work"}}, "data": [{"compound": "O=c1ccc2c(-c3ccccc3CO)c3ccc(NCC(F)(F)F)cc3oc-2c1", "note": "[HMRef]", "values": [{"measurement": "fluorescence quantum yield (Φfl)", "setting": "[1]", "result": 0.78}, {"measurement": "singlet oxygen generation quantum yield", "setting": "[2]", "result": "0.05±0.14"}]}, {"compound": "O=C([O-])c1c(Cl)c(Cl)c(Cl)c(Cl)c1-c1c2cc(I)c(=O)c(I)c-2oc2c(I)c([O-])c(I)cc12.[Na+].[Na+]", "note": "[Rose bengal]", "values": [{"measurement": "singlet oxygen generation quantum yield (reference value)", "setting": "[3]", "result": 0.75}]}]}
